Laboratory results as given in patent US20230097866A1, “BACTERIAL TOPOISOMERASE INHIBITORS DERIVED FROM ISOMANNIDE” (Ohio State Innovation Foundation, priority 2020, published 2023).
≈ marks a conversion by molar mass, not a printed value.

Key:
[1] = tested on: Enterobacter cloacae LSI-2943; test: MIC panel (Laboratory Specialists, Inc.), E. cloacae; type: cell-based; conditions: LSI2943, Cmpd. 6, CLSI broth microdilution
S. aureus ATCC 29213 = test: microbe, parasite or virus in culture; type: cell-based; conditions: Staphylococcus aureus, ATCC29213, read-out: S. aureus ATCC 29213 MIC (n = 2); CLSI agar dilution
Protocol: In order to determine the spontaneous mutation frequency of investigational agents (Table 4), the MIC was first determined using the agar dilution method as recommended by the Clinical and Laboratory Standards Institute.
Triplicate independent inocula of S. aureus ATCC 29213 were evaluated.

CYP2C9 = biological target: T1, CYP2C9 (Homo sapiens, UniProt P11712); test: CYP450 inhibition in human liver microsomes, CYP2C9; type: in vitro ADME; conditions: 10 μM
T1 construct: incubated with human liver microsomes (mixed gender, pool of 50 donors, 0.1 mg/mL); from tissue; host or cells: human liver microsomes, pool of 50 donors
Protocol: (§1) CYP450 inhibition assays was conducted using individual enzyme substrates and inhibitors instead of a cocktail to avoid interferences. CYP450 isoforms tested included the following: CYP1A2, CYP2B6, CYP2C8, CYP2C9, CYP2C19, CYP2D6, and CYP3A4. Each test compound was screened at a final concentration of 10 μM. Each test compound was incubated with human liver microsomes (mixed gender, pool of 50 donors, 0.1 mg/mL), CYP450-selective probe substrates, and co-factors (NADPH, MgCl2) in phosphate buffer (pH 7.4) for 10-30 min in a 96-well plate at 37° C. The reactions were stopped by transferring the reaction mixture to acetonitrile/methanol. Samples were mixed and centrifuged, and the supernatants analyzed by LC-MS/MS to quantify percent inhibition relative to vehicle control.

CYP2D6 = biological target: T2, CYP2D6 (Homo sapiens, UniProt P10635); test: CYP450 inhibition in human liver microsomes, CYP2D6; type: in vitro ADME; conditions: 10 μM
T2 construct: incubated with human liver microsomes (mixed gender, pool of 50 donors, 0.1 mg/mL); from tissue; host or cells: human liver microsomes, pool of 50 donors
Protocol: as §1

T2 sequence (P10635 whole entry): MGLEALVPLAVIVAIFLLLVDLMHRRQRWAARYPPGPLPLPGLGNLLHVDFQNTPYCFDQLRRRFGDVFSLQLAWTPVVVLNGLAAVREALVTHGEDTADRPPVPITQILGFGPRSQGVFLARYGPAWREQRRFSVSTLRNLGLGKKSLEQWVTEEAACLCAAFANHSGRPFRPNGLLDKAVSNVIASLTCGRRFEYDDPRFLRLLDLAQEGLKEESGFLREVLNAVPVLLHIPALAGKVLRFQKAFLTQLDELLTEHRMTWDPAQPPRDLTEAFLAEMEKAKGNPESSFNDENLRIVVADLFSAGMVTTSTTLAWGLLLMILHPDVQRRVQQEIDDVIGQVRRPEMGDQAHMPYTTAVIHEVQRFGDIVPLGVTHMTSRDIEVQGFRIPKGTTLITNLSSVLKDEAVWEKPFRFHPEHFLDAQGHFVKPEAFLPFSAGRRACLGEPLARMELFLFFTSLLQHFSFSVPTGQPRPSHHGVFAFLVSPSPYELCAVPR
T1 sequence (P11712 whole entry): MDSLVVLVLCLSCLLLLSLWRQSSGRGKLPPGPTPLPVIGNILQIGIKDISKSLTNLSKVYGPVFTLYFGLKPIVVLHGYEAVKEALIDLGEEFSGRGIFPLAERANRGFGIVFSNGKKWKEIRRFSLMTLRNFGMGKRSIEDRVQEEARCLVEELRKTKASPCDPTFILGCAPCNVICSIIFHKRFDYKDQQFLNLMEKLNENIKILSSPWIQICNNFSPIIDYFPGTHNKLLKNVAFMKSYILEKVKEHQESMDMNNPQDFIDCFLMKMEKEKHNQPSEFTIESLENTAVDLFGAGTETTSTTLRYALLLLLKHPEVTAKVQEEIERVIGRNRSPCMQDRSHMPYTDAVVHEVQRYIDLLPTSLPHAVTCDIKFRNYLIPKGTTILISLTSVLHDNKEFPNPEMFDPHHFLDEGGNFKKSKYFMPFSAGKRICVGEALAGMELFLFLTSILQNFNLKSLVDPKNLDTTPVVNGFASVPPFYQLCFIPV

Structure (SMILES): COc1ccc2ncc(F)c(CC[C@@]3(O)CO[C@@H]4[C@@H](NCc5cc6c(cn5)OCCO6)CO[C@@H]43)c2n1 [Compound 6, (3R, 3aS,6S,6aR)-6-(((2,3-dihydro-[1,4]dioxino[2,36-c]pyridin-7-yl)methyl)amnino)-3-(2-(3-fluoro-6-methoxy-1,5-naphthyridin-4-yl)ethyl)hexahydrofuro[3,2-b]furan-3-ol]
- MIC [1]: 16 µg/mL (≈ 32.1 µM)
- MIC (S. aureus ATCC 29213): 1 µg/mL (≈ 2.01 µM)
- CYP2C9 inhibition (CYP2C9): Less than 50%
- CYP2D6 inhibition (CYP2D6): Less than 50%
